Results from patent publication US12350273B2, “Treatment of SMA” (Hoffmann-La Roche Inc., priority 2017, dated 2025).

Experiments:
Cynomolgus monkey iPSCs = assay: Cell cycle analysis of Cynomolgus monkey iPSCs (flow cytometry); format: cell-based; settings: Cynomolgus monkey iPSCs, 24 h, 30 nM (positive control)
Description: (§1) For the analysis of the cell cycle, monkey stem cells were detached with Accutase (Stem Cell Technologies) and plated at 15000 cells/cm2 in 6 well plates coated with Matrigel (BD Biosciences) in MT medium supplemented with 10 ng/ml ActivinA, 15 ng/ml FGF2, and 10 μM Rock inhibitor. Cells were expanded for 1 day and then synchronized by starvation for 7 h in MT medium without supplements FGF2 and ActivinA. Before flow cytometry, cells were incubated for 24 h with fresh MT medium containing supplements FGF2 and ActivinA and test items at 80 nM, 400 nM, and 2000 nM or 30 nM rapamycin as positive control to arrest cells in G1 phase. Human stem cells were detached with Accutase (Stem Cell Technologies) and plated at 40000 cells/cm2 in 6 well plates coated with Matrigel (BD Biosciences) in mTeSR1 supplemented with 10 μM Rock Inhibitor Y-27632 (Sigma-Aldrich). Cells were expanded for 3 days with daily medium change. Since human iPSCs lose their properties during starvation by growth factor withdrawal, stem cells were synchronized with 200 ng/ml Nocodazole (Sigma-Aldrich) for 5 h and washed subsequently 2 times with mTesR1 Medium. Before flow cytometry, cells were incubated for 24 h with fresh TesR1 medium containing test items at 80 nM, 400 nM, and 2000 nM or 30 nM rapamycin as positive control to arrest cells in G1 phase.
(§2) For cell cycle analysis, human iPSCs were washed with PBS, detached with Accutase (Stem Cell Technologies) and collected by centrifugation. Cells were stained for 1 h at 37° C. with 600 ul of 7 AAD/Saponin/RNAse mix ([…] 7 AAD (#559925, BD), 50 μg/ml RNase, and 0.03% Saponin dissolved in FACS buffer (PBS, 5% FBS, 10 mM Hepes)). Cynomolgus monkey iPSCs were washed with PBS, detached with Accutase (Stem Cell Technologies) and collected by centrifugation. Cells were stained for 30 min at 37° C. in 300 ul standard MT medium (with FGF2 and ActivinA) containing 1 ul Vybrant Dye Cycle Violet Stain (#V35003, 1000× stock, Invitrogen) per ml medium. Additionally 2 ul 7 AAD (50 μg/ml 7 AAD) were added without permeabilization to label dead cells; cells were incubated for 10 min at 37° C. Flow cytometry analysis was performed using a Canto II cytometer (BD Biosciences) and data were analysed with the FlowJo software.

human iPSCs = assay: Cell cycle analysis of human iPSCs (flow cytometry); format: cell-based; settings: 24 h, 30 nM (positive control)
Description: as §1, §2

CO[C@H]1C[C@@H]2CC[C@@H](C)[C@@](O)(O2)C(=O)C(=O)N2CCCC[C@H]2C(=O)O[C@H]([C@H](C)C[C@@H]2CC[C@@H](O)[C@H](OC)C2)CC(=O)[C@H](C)/C=C(\C)[C@@H](O)[C@@H](OC)C(=O)[C@H](C)C[C@H](C)/C=C/C=C/C=C/1C [Rapamycin, reference compound]
percentage of events in G1 phase, mean (Cynomolgus monkey iPSCs): 41.7% | percentage of events in G2 phase, mean (Cynomolgus monkey iPSCs): 45.6% | percentage of events in S phase, mean (Cynomolgus monkey iPSCs): 12.7% | percentage of events in G1 phase, mean (human iPSCs): 58.3% | percentage of events in G2 phase, mean (human iPSCs): 30.5% | percentage of events in S phase, mean (human iPSCs): 11.2%
